Assay results reported in patent US9868743B2, “Macrocyclic molecules as HCV entry inhibitors” (priority 2013, dated 2018).
Like-named read-outs stand apart in the source and are kept apart here.

System: HCV pseudoparticles, genotype 1a HCV E1 and E2 envelope (H77C isolate)
Experiment: HCV pseudoparticle infection assay (luciferase reporter, Huh7 cells)
Format: cell-based, HCV genotype 1a (H77C)
Details: Hepatitis C virus, Huh-7, 48 h
[1] = read-out: EC50 (nM) 1a (H77C), HCV pseudoparticle entry into Huh7 cells, luciferase 2 days after infection, class symbol
[2] = HCV pseudoparticle entry into Huh7 cells, luciferase 2 days after infection, class symbol, read-out: EC50 (nM) 1a (H77C)
[3] = read-out: EC50 (nM) 1a (H77C), HCV pseudoparticle entry into Huh7 cells, luciferase 2 days after infection, average of duplicates

| Compound | EC50 [1] | also measured |
| --- | --- | --- |
| CC1(C)CNC(=O)c2ccc(cc2)Nc2nc(nc(OCC(F)(F)F)n2)NCc2ccc(c(Cl)c2)OCCCN(C(=O)CCc2ccccc2)C1 [Example 1003] | 0.01 to 10 nM | – |
| C=COC(=O)N1CCCOc2ccc(cc2Cl)CNc2nc(nc(OCC(F)(F)F)n2)Nc2ccc(cc2)C(=O)NCC(C)(C)C1 [Example 2002] | 0.01 to 10 nM | – |
| CC1(C)CNC(=O)c2ccc(cc2)Nc2nc(nc(OCC(F)(F)F)n2)NCc2ccc(c(Cl)c2)OCCCN(C(=O)c2ncoc2-c2ccccc2)C1 [Example 1012] | 0.01 to 10 nM | – |
| CC1(C)CNC(=O)c2ccc(cc2)Nc2nc(nc(OCC(F)(F)F)n2)NCc2ccc(c(Cl)c2)OCCCN(C(=O)CCCc2ccccc2)C1 [Example 1004] | 0.01 to 10 nM | – |
| CC1(C)CNC(=O)c2ccc(cc2)Nc2nc(nc(OCC(F)(F)F)n2)NCc2ccc(c(Cl)c2)OCCCN(C(=O)Oc2ccc3ccccc3c2)C1 [Example 2010] | – | EC50 [2]: 0.01 to 10 nM |
| Cc1oc(=O)oc1COC(=O)N1CCCOc2ccc(cc2Cl)CNc2nc(nc(OCc3ccc(C(F)(F)F)cc3)n2)Nc2ccc(cc2)C(=O)NCC(C)(C)C1 [Example 2015] | 0.01 to 10 nM | – |
| CC1(C)CNC(=O)c2ccc(cc2)Nc2nc(nc(OCC(F)(F)F)n2)NCc2ccc(c(Cl)c2)OCCCN(S(=O)(=O)/C=C/c2ccccc2)C1 [Example 4001] | 0.01 to 10 nM | EC50 [3]: 0.555 nM |
| CC1(C)CNC(=O)c2ccc(cc2)Nc2nc(nc(OCC(F)(F)F)n2)NCc2ccc(c(Cl)c2)OCCCN(C(=O)Oc2ccccc2)C1 [Example 2006] | – | EC50 [2]: 0.01 to 10 nM |
| CC1(C)CNC(=O)c2ccc(cc2)Nc2nc(nc(OCC(F)(F)F)n2)NCc2ccc(c(Cl)c2)OCCCN(C(=O)CCc2nc3ccccc3s2)C1 [Example 1013] | 0.01 to 10 nM | – |
| CC1(C)CNC(=O)c2ccc(cc2)Nc2nc(nc(OCC(F)(F)F)n2)NCc2ccc(c(Cl)c2)OCCCN(C(=O)/C=C/c2ccoc2)C1 [Example 1006] | 0.01 to 10 nM | – |
| CC1(C)CNC(=O)c2ccc(cc2)Nc2nc(nc(OCC(F)(F)F)n2)NCc2ccc(c(Cl)c2)OCCCN(C(=O)/C=C/c2ccccc2)C1 [Example 1005] | 0.01 to 10 nM | EC50 [3]: 1.51 nM |
| CC1(C)CNC(=O)c2ccc(cc2)Nc2nc(nc(OCC(F)(F)F)n2)NCc2ccc(c(Cl)c2)OCCCN(C(=O)Cc2cccnc2)C1 [Example 1016] | 0.01 to 10 nM | – |
| CC1(C)CNC(=O)c2ccc(cc2)Nc2nc(nc(OCC(F)(F)F)n2)NCc2ccc(c(Cl)c2)OCCCN(C(=O)Cc2ccccc2)C1 [Example 1002] | 0.01 to 10 nM | – |
| CC1(C)CNC(=O)c2ccc(cc2)Nc2nc(nc(OCC(F)(F)F)n2)NCc2ccc(c(Cl)c2)OCCCN(C#N)C1 [Example 3001] | 0.01 to 10 nM | – |
| CC(C)[C@H]1CC[C@H](C)C[C@@H]1OC(=O)N1CCCOc2ccc(cc2Cl)CNc2nc(nc(OCC(F)(F)F)n2)Nc2ccc(cc2)C(=O)NCC(C)(C)C1 [Example 2004] | 0.01 to 10 nM | – |
| C#CCOC(=O)N1CCCOc2ccc(cc2Cl)CNc2nc(nc(OCC(F)(F)F)n2)Nc2ccc(cc2)C(=O)NCC(C)(C)C1 [Example 2001] | 0.01 to 10 nM | – |
| Cc1oc(=O)oc1CN1CCCOc2ccc(cc2Cl)CN(Cc2oc(=O)oc2C)c2nc(nc(OCC(F)(F)F)n2)Nc2ccc(cc2)C(=O)NCC(C)(C)C1 [Example 5002] | 0.01 to 10 nM | – |
| Cc1oc(=O)oc1COC(=O)N1CCCOc2ccc(cc2Cl)CNc2nc(nc(OCC(F)(F)F)n2)Nc2ccc(cc2)C(=O)NCC(C)(C)C1 [Example 2014] | 0.01 to 10 nM | – |

| Compound | EC50 [1] | also measured |
| --- | --- | --- |
| CC1(C)CNC(=O)c2ccc(cc2)Nc2nc(nc(OCC(F)(F)F)n2)NCc2ccc(c(Cl)c2)OCCCN(C(=O)CCC(=O)c2ccccc2)C1 [Example 1017] | 0.01 to 10 nM | – |
| CC1(C)CNC(=O)c2ccc(cc2)Nc2nc(nc(OCC(F)(F)F)n2)NCc2ccc(c(Cl)c2)OCCCN(C(=O)CNC(=O)OC(C)(C)C)C1 [Example 1010] | 0.01 to 10 nM | – |
| COc1ccc(OC(=O)N2CCCOc3ccc(cc3Cl)CNc3nc(nc(OCC(F)(F)F)n3)Nc3ccc(cc3)C(=O)NCC(C)(C)C2)cc1 [Example 2007] | – | EC50 [2]: 0.01 to 10 nM |
| Cc1oc(=O)oc1COC(=O)N1CCCOc2ccc(cc2Cl)CNc2nc(nc(OCc3ccc(C(C)C)cc3)n2)Nc2ccc(cc2)C(=O)NCC(C)(C)C1 [Example 2016] | 0.01 to 10 nM | EC50 [3]: 0.109 nM |
| CC1(C)CNC(=O)c2ccc(cc2)Nc2nc(nc(OCC(F)(F)F)n2)NCc2ccc(c(Cl)c2)OCCCN(C(=O)OCCOCc2ccccc2)C1 [Example 2013] | 0.01 to 10 nM | – |
| CC1(C)CNC(=O)c2ccc(cc2)Nc2nc(nc(OCc3cccnc3)n2)NCc2ccc(c(Cl)c2)OCCCN(C(=O)OCc2cccnc2)C1 [Example 2011] | 10 to 1000 nM | – |
| CC1(C)CNC(=O)c2ccc(cc2)Nc2nc(nc(OCC(F)(F)F)n2)NCc2ccc(c(Cl)c2)OCCCN(C(=O)CN)C1 [Example 1009] | 0.01 to 10 nM | – |
| CC1(C)CNC(=O)c2ccc(cc2)Nc2nc(nc(OCC(F)(F)F)n2)NCc2ccc(c(Cl)c2)OCCCN(C(=O)CC(C)(C)n2cccc2)C1 [Example 1015] | 0.01 to 10 nM | EC50 [3]: 0.932 nM |
| CC1(C)CNC(=O)c2ccc(cc2)Nc2nc(nc(OCC(F)(F)F)n2)NCc2ccc(c(Cl)c2)OCCCN(C(=O)c2ccccc2)C1 [Example 1001] | 0.01 to 10 nM | EC50 [3]: 0.864 nM |
| CC(C)[C@@H]1CC[C@@H](C)C[C@H]1OC(=O)N1CCCOc2ccc(cc2Cl)CNc2nc(nc(OCC(F)(F)F)n2)Nc2ccc(cc2)C(=O)NCC(C)(C)C1 [Example 2005] | 0.01 to 10 nM | EC50 [3]: 2.85 nM |
| CC1(C)CNC(=O)c2ccc(cc2)Nc2nc(nc(OCC(F)(F)F)n2)NCc2ccc(c(Cl)c2)OCCCN(C(=O)CCc2ccncc2)C1 [Example 1014] | 0.01 to 10 nM | – |
| CC1(C)CNC(=O)c2ccc(cc2)Nc2nc(nc(OCC(F)(F)F)n2)NCc2ccc(c(Cl)c2)OCCCN(C(=O)/C=C/c2ccco2)C1 [Example 1007] | 0.01 to 10 nM | – |
| CC1(C)CNC(=O)c2ccc(cc2)Nc2nc(nc(OCC(F)(F)F)n2)NCc2ccc(c(Cl)c2)OCCCN(C(=O)CCC(=O)O)C1 [Example 1008] | 10 to 1000 nM | EC50 [3]: 23.9 nM |
| C=CCOC(=O)N1CCCOc2ccc(cc2Cl)CNc2nc(nc(OCC(F)(F)F)n2)Nc2ccc(cc2)C(=O)NCC(C)(C)C1 [Example 2003] | 0.01 to 10 nM | – |
| CC1(C)CNC(=O)c2ccc(cc2)Nc2nc(nc(OCC(F)(F)F)n2)NCc2ccc(c(Cl)c2)OCCCN(C(=O)Oc2cccc3ccccc23)C1 [Example 2009] | – | EC50 (HCV pseudoparticle entry into Huh7 cells, luciferase 2 days after infection, average of duplicates, read-out: EC50 (nM) 1a (H77C)): 1.26 nM; EC50 [2]: 0.01 to 10 nM |
| Cc1oc(=O)oc1CN1CCCOc2ccc(cc2Cl)CNc2nc(nc(OCC(F)(F)F)n2)Nc2ccc(cc2)C(=O)NCC(C)(C)C1 [Example 5001] | 0.01 to 10 nM | EC50 [3]: 7.67 nM |
| CC1(C)CNC(=O)c2ccc(cc2)Nc2nc(nc(OCC(F)(F)F)n2)NCc2ccc(c(Cl)c2)OCCCN(C(=O)Oc2ccc([N+](=O)[O-])cc2)C1 [Example 2008] | – | EC50 [2]: 0.01 to 10 nM |
| CC1(C)CNC(=O)c2ccc(cc2)Nc2nc(nc(OCC(F)(F)F)n2)NCc2ccc(c(Cl)c2)OCCCN(C(=O)[C@@H]2C[C@H]2c2ccccc2)C1 [Example 1011] | 0.01 to 10 nM | – |
